Test results taken from patent US20250332265A1, “PSMA TARGETED CONJUGATE COMPOUNDS AND USES THEREOF” (priority 2021, published 2025).
Several values for one entry are separate records, joined by “and”; a condition that tells them apart may be missing. Equal entries are not always repeated. Numbered stars: 1 amine (or outer) side, 2 acyl side, 3 side chain; on linkers, the order of the positions; unused ones are H or OH. Bridge positions count the residues as written; N and C are the ends. Square brackets hold non-standard residues; d marks the D form. Peptide text beside a SMILES is read from it. I, II: the chains in the order shown. * marks the point of attachment. ξ: configuration not given here. X4 = CN1/C(=C/C=C/C=C/C2=[N+](CCCCCC(=O)*)c3ccc4ccccc4c3C2(C)C)C(C)(C)c2c1ccc1ccccc21; Hexanoyl(6-succinimido-3yl) = O=C1CC([*:1])C(=O)N1CCCCCC(=O)[*:2]; X5 = CC[C@H](C)[C@@H]([C@H](CC(=O)[*:2])OC)N(C)[*:1]; Dolaproine = CO[C@@H]([C@@H]1CCCN1)[C@@H](C)C(=O)O; Dil = CC[C@H](C)[C@H](NC)[C@@H](CC(=O)O)OC; γGlu = O=C(O)[C@H](CCC(=O)[*:2])N[*:1]; PABC = O=C(OCc1ccc(N[*:1])cc1)[*:2]; ξγGlu = O=C(O)C(CCC(=O)[*:2])N[*:1]; X1 = C[C@@H](N*)[C@@H](O)c1ccccc1; Trx = NC[C@H]1CC[C@H](C(=O)O)CC1; X3 = O=C(C1CCC(CN[*:1])CC1)[*:2]; Cit = NC(=O)NCCC[C@H](N)C(=O)O; NMeV = CN[C@H](C(=O)O)C(C)C; ξE = NC(CCC(=O)O)C(=O)O; CO = O=C([*:1])[*:2]; ξK = NCCCCC(N)C(=O)O; Ahx = NCCCCCC(=O)O; ξC = NC(CS)C(=O)O

What was measured:
[1] = system: PSMA-positive PC3pip cells; assay: In vitro cytotoxicity assay (CCK-8), PC3pip; type: cell-based, human
Experimental: Cells (1,000/well) were seeded in 96-well culture plates the day before treatment. Cells were incubated with various concentrations of drugs for 72 hours and cell viability evaluated by CCK-8 (Dojindo). The concentration required to reach 50% of cell proliferation was determined (IC50) by GraphPad Prism 3.0.

[2] = Maximum tolerated dose (MTD); type: in vivo, mice; conditions: single dose i.v., tumor-free athymic nude mice
Excerpt: Mice were monitored daily for 14 days.

[3] = system: heterotopic PC3pip tumors; assay: Heterotopic survival study; type: in vivo, mice; conditions: for antitumor activity (tumor growth), words: 160 nmol/kg i.v. every four days
Excerpt: Male athymic nude mice were implanted subcutaneously with 1×10^6 of PC3pip cells under the right dorsum of the mice. When tumor size reached approximately 100 mm^3 (tumor volume=Length×width^2/2), mice received drugs through tail vein injection. […] Animals were weighed and tumor size measured every other day for 90 days. Cures were defined as no tumor present at end of the 90-day study. When tumors became too large or animals were moribund they were euthanized. Five mice were used in each group.

PC3flu cells = assay: In vitro cytotoxicity by MTT assay, PC3flu; type: cell-based, human; conditions: 5 nM, 24 h
Experimental: (§1) In vitro cytotoxicity was measured by MTT assay. Cells (10000 cells/well) were seeded in 96-well plates and incubated for 24 h before adding 5 nM free MMAE, PSMA-MMAE, or PSMA-AuNCs-MMAE. An equivalent amount of PSMA-AuNCs without MMAE was added as a control, and another group of cells pretreated with 50 μM E64 inhibitor for 6 h was also incubated with PSMA-AuNCs-MMAE. After incubation for 1, 4, and 24 h, cells were rinsed with PBS and incubated with 1 mg/mL MTT solution in culture media for 3.5 h. After that media were removed, and 100 μL of DMSO was added. The absorbance was measured 15 min later by a plate reader (Tecan Infinite M200) with absorbance at 570 nm and reference at 620 nm.

PC3pip cells [4] = assay: In vitro cytotoxicity by MTT assay, PC3pip; type: cell-based, human; conditions: 5 nM, 24 h
Experimental: as §1

[5] = system: α-tubulin in PC3pip and PC3flu cells; assay: Immunofluorescence analysis of alpha-tubulin; type: cell-based, human; conditions: 5 nM, 24 hours
Experimental: Cells on coverslips at about 70% confluency were incubated with 5 nM of MMAE, PSMA-1-VcMMAE-Cy5.5 or PSMA-1-McMMAE-Cy5.5 for 24 hours. Cells were washed and fixed with 4% paraformaldehyde for 10 minutes, permeabilized with 0.1% Triton™ X-100 for 10 minutes, and blocked with 1% BSA for 1 hour at room temperature. Alpha-tubulin (B5-1-2) Alexa Fluor 488 Mouse Monoclonal Antibody (Invitrogen) was then added at 2 μg/mL in 0.1% BSA and incubated for 3 hours at room temperature. Cells were counterstained with DAPI, mounted with Fluor-Mount aqueous mounting solution, and observed under Leica DM4000B fluorescence microscopy at 40×.

PC3pip cells [6] = assay: In vitro radiotherapy (colony survival); type: cell-based, human; conditions: 1 nM MMAE and/or 60 μg Au/mL, 6 h, X-ray 0-6 Gy
Experimental: Both PC3pip and PC3flu cells (1×10^5 cells/well) were cultured in 6-well plates for 24 h, and then PSMA-AuNC-MMAE and PSMA-MMAE were added at an equivalent MMAE concentration of 1 nM. Additionally, PSMA-AuNCs without MMAE was added at 60 μg Au/mL. Another group with the addition of a mixture of PSMA-AuNCs and PSMA-AuNC-MMAE at the equivalent dose of Au and MMAE was also evaluated. Mixing was performed so as to keep Au concentrations equivalent. This could not be achieved by adding more PSMA-AuNC-MMAE as this would result in toxic levels of MMAE. Cells without any treatment were used as blank control. Following incubation for 6 h, the media were removed, and cells were rinsed by PBS before exposing to X-ray radiation at doses of 0, 2, 4, and 6 Gy. Next, cells were trypsinized, counted, and reseeded in 6-well plate for colonies to grow. After 2 weeks, all the wells were rinsed with PBS, fixed with 4% paraformaldehyde, and stained by 0.4% crystal violet. The number of colonies from each well was counted to calculate the survive fraction.

PC3pip tumor = assay: In vivo chemoradiotherapy; design: species or system mice
Experimental: Male athymic nude mice were subcutaneously implanted with the PC3pip tumor, and when the tumor size reached about 100 mm^3 (tumor volume=length×width^2/2), the mice were divided into ten groups randomly. Each group was intravenously injected with PBS, PSMA-AuNCs, PSMA-AuNCs-MMAE, PSMA-MMAE, or a mixture of PSMA-AuNCs and PSMA-MMAE at MMAE dose of 400 nmol/kg and an equivalent dose of Au. At 4 h postinjection, five of the groups were irradiated with X-rays (6 Gy, Cs-137 with energy of 0.6616 MeV) focusing on the tumor region, and the other five groups received the same injections but no radiation and were used as controls. Each group contained five mice. All the treatments were given only once, and then the mice were monitored for tumor size and body weight every other day for one month. The coefficient of drug interaction (CDI) is calculated as follows: CDI=C/(A×B),^44 where C is the tumor volume ratio of PSMA-AuNCs-MMAE+RT group to control group, A is the tumor volume ratio of PSMA-AuNCs+RT group to control group, and B is the tumor volume ratio of PSMA-MMAE+RT group to control group; PBS+RT group is the control. […] When the tumors became too large or an animal was moribund, they were euthanized. At the end of monitoring, all mice were euthanized and tumors were isolated and weighed.

[7] = In vitro cytotoxicity by MTT assay, PC3flu; type: cell-based, human; conditions: 5 nM, 24 h, read-out: cell killing / drop of viability, PC3flu cells
Experimental: as §1

[8] = Stability of conjugates incubated with PBS, Example 1; type: physicochemical; conditions: without enzyme
Experimental: To investigate if PSMA-targeted drug conjugates were cleavable by cathepsin B, the two conjugates were incubated with or without the enzyme and chromatographed by HPLC. When the conjugates were incubated with PBS, both PSMA-1-VcMMAE-Cy5.5 and PSMA-1-McMMAE-Cy5.5 were stable (FIG. 1D).

orthotopic PC3pip tumors = assay: Orthotopic survival study; type: in vivo, mice; conditions: every four days, 5 doses
Experimental: Surgical orthotopic tumor implantation was performed as previously reported. Tumor growth/size was monitored using Siemens Acuson S2000 ultrasound scanner. When the tumors were at the appropriate size (5 mm as measured by ultrasound, approximately 2 weeks) animals were given PSMA-1-VcMMAE, PSMA-1-VcMMAE-Cy5.5, or PBS every four days with a total of 5 doses. Tumors were monitored every other day by ultrasound. Each group had five mice.

heterotopic C4-2 tumors = assay: Antitumor activity in heterotopic C4-2 tumors; type: in vivo, mice
Excerpt: To show versatility of the antitumor activity of PSMA-1-VcMMAE-Cy5.5, we tested it in mice bearing heterotopic C4-2 tumors, which are androgen-independent prostate cancer cells endogenously expressing PSMA.

PC3pip and PC3flu tumors = assay: In vivo NIR imaging studies, Example 1; design: species or system mice; conditions: 40 nmol/kg i.v., fluorescence imaging
Experimental: Under guidelines of the animal care and use committee at Case Western Reserve University (IACUC #150033) 6 to 8-week old male Balb/cathymic nude mice were implanted subcutaneously with 1×10^6 of PC3flu and PC3pip on the left and right dorsum respectively. Mice received 40 nmol/kg of PSMA-1-VcMMAE-Cy5.5 or PSMA-1-McMMAE-Cy5.5 in PBS via tail vein injection when tumors reached 10 mm in diameter. Fluorescence imaging was performed using the Maestro In Vivo Imaging system (Perkin-Elmer). Multispectral images were unmixed into their component spectra (PSMA probes, autofluorescence, and background) to quantitate the average fluorescence intensity associated with the tumors using regions of interest (ROIs) around the tumors.

[9] = system: PSMA receptor expressed on the PC3pip cells; assay: In vitro cellular uptake studies, Example 1; type: cell-based, human; conditions: 50 nM, 4 hours
Experimental: PC3pip and PC3flu cells were seeded in p-Slide 8-Well Chamber Slide (ibidi GmbH) at 2,000 cells/well. When cells grew to 70% confluency, PSMA-1-VcMMAE-Cy5.5 or PSMA-1-McMMAE-Cy5.5 conjugations were added at 50 nM and incubated at 37° C. for 4 hours. Cells were washed with PBS and stained with DAPI and LysoOrange (Abcam) for 30 minutes at 37° and 5% CO2, after which they were washed again with PBS and filled with fresh medium. Selectivity was determined by including 20-fold excess of the PSMA-1 ligand. The uptake and localization of the drug conjugates were visualized under a Leica HyVolution SP8 confocal microscope at 40×.

Compound	selectivity, differential cytotoxicity between PC3pip and PC3flu cells ([1]; 72 hours incubation)	maximum tolerated dose (MTD) [2]	time by which all mice died ([3]; 160 nmol/kg)	antitumor activity (tumor growth), words ([3]; 5 doses)	cell killing / drop of viability, PC3flu cells (PC3flu cells)	cell killing, PC3pip cells (PC3pip cells [4])	disruption of α-tubulin network [5]	radiosensitization (colony survival rate) of PC3pip cells (PC3pip cells [6])	tumor volume increase (PC3pip tumor; 6 Gy radiation, day 30, MMAE 400 nmol/kg)	tumor volume increase (PC3pip tumor; no radiation, end of observation, MMAE 400 nmol/kg)	cytotoxicity [7]	stability when incubated with PBS [8]	IC50 ([1]; 72 hours incubation, CCK-8)	effect of protease inhibitor E64 on cell killing ([1]; co-incubation with 50 μM E64)	cure at day 90 (orthotopic PC3pip tumors)	cure rate (heterotopic C4-2 tumors)	time of peak uptake in PC3pip tumors (PC3pip and PC3flu tumors)	cure rate (no tumors at end of 90-day study) ([3]; 160 nmol/kg i.v. every 4 days, 5 doses)	tumor growth when given every 7 days ([3]; dosing every 7 days)	cellular binding and uptake, competition with PSMA-1 ligand [9]
CC[C@H](C)[C@@H]([C@@H](CC(=O)N1CCC[C@H]1[C@H](OC)[C@@H](C)C(=O)N[C@H](C)[C@@H](O)c1ccccc1)OC)N(C)C(=O)[C@@H](NC(=O)[C@@H](NC)C(C)C)C(C)C [MMAE, monomethyl auristatin E, reference compound] (H-[NMeV]V[Dil][Dolaproine]-X1)	no selectivity	700 nmol/kg	≤ 36 days	relatively ineffective at inhibiting tumor growth	over 70%	over 70%	non-selective tubulin disruption	–	–	–	–	–	–	–	–	–	–	–	–	–
CC[C@H](C)[C@@H]([C@@H](CC(=O)N1CCC[C@H]1[C@H](OC)[C@@H](C)C(=O)N[C@H](C)[C@@H](O)c1ccccc1)OC)N(C)C(=O)[C@@H](NC(=O)[C@H](C(C)C)N(C)C(=O)OCc1ccc(NC(=O)[C@H](CCCNC(N)=O)NC(=O)[C@@H](NC(=O)CCCCCN2C(=O)CC(SC[C@H](NC(=O)[C@H](Cc3ccc(O)cc3)NC(=O)[C@H](CCCCN)NC(=O)[C@H](CCC(=O)O)NC(=O)[C@H](CCC(=O)O)NC(=O)[C@H](CCC(=O)O)NC(=O)CCCCCNC(=O)[C@H]3CC[C@H](CNC(=O)CC[C@H](NC(=O)N[C@@H](CCC(=O)O)C(=O)O)C(=O)O)CC3)C(N)=O)C2=O)C(C)C)cc1)C(C)C (stereo partly drawn) [PSMA-MMAE] (I: {Glu-CO-γGlu-Trx-Ahx}-EEEKYC-NH2 / II: V[Cit][PABC][NMeV]V[Dil][Dolaproine]-X1; linker I:6-II:N via Hexanoyl(6-succinimido-3yl); C-terminus assumed)	–	–	–	–	–	58%	–	notably lower survival rate	55%	163%	18%	–	–	–	–	–	–	–	–	–
CC[C@H](C)[C@@H]([C@H](CC(=O)N1CCC[C@H]1[C@H](OC)[C@@H](C)C(=O)N[C@H](C)[C@@H](O)c1ccccc1)OC)N(C)C(=O)[C@@H](NC(=O)[C@H](C(C)C)N(C)C(=O)OCc1ccc(NC(=O)[C@H](CCCNC(N)=O)NC(=O)[C@@H](NC(=O)CCCCCN2C(=O)CC(SCC(NC(=O)C(CCC(=O)O)NC(=O)C(CCC(=O)O)NC(=O)C(CCC(=O)O)NC(=O)CCCCCNC(=O)C3CCC(CNC(=O)CCC(NC(=O)NC(CCC(=O)O)C(=O)O)C(=O)O)CC3)C(=O)NCCCCCC(=O)NC(CCCCNC(=O)CCCCC[N+]3=C(/C=C/C=C/C=C4/N(C)c5ccc6ccccc6c5C4(C)C)C(C)(C)c4c3ccc3ccccc43)C(N)=O)C2=O)C(C)C)cc1)C(C)C (some centres unmarked) [PSMA-1-VcMMAE-Cy5.5] (I: {ξE-CO-ξγGlu}-[X3][Ahx][ξE][ξE][ξE][ξC][Ahx][ξK](X4)-NH2 / II: V[Cit][PABC][NMeV]V[X5][Dolaproine]-X1; linker I:6-II:N via Hexanoyl(6-succinimido-3yl))	–	–	–	effectively inhibited tumor growth	–	–	selective disruption of tubulin in PC3pip cells	–	–	–	–	stable	840 pM and 750 pM	reduced the potency	40%	40%	24 h	60%	greatly inhibited tumor growth	selective and specific for the PSMA receptor
